Test results from ChEMBL document CHEMBL1150349, “Design and synthesis of hydroxy-alkynoic acids and their methyl esters as novel activators of BK channels” (Bioorg Med Chem Lett, 2008).
Activity calls are given as the source filed them. The calls are words filed in the database; no cut-off is given here.

Target: Calcium-activated potassium channel subunit alpha-1 (Rattus norvegicus) (UniProt Q62976)
Assay: Activation of BK channel in rat cerebral myocytes by voltage patch clamp method
Assay type: cell-based

Chain of Calcium-activated potassium channel subunit alpha-1 (Rattus norvegicus) (Q62976 whole entry): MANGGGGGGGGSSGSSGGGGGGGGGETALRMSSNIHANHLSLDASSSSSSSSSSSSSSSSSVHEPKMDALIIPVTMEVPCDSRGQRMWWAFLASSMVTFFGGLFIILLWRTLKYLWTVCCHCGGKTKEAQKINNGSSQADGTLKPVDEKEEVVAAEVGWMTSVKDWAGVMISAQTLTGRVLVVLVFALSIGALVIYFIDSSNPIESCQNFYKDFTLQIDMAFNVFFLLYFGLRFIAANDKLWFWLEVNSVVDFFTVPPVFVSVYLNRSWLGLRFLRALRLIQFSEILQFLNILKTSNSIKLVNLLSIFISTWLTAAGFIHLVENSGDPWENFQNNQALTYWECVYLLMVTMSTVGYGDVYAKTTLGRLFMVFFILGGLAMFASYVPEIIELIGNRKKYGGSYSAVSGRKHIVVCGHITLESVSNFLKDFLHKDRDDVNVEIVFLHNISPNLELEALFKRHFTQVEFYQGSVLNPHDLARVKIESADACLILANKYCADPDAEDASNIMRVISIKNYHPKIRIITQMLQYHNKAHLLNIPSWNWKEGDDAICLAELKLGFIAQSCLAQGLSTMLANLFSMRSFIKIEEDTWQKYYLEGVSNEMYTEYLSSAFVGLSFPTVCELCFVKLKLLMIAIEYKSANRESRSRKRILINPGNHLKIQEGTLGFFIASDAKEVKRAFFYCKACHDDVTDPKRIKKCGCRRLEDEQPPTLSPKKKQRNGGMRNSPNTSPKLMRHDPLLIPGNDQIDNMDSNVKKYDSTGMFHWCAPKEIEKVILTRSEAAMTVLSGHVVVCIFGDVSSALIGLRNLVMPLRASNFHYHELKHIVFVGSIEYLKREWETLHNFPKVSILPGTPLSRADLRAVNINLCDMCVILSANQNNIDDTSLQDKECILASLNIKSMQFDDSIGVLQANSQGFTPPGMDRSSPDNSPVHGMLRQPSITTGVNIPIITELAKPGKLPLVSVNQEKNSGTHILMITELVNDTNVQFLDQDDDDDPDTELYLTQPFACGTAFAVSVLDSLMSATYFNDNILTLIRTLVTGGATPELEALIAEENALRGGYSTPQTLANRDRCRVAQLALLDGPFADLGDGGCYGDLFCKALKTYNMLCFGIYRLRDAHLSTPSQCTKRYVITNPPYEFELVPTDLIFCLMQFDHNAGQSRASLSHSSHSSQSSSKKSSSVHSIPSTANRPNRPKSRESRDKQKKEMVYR

| Compound | Activity |
| --- | --- |
| COC(=O)CCCCC#CCCCO | Active |
| COC(=O)CCCCCCCC#CCCCCO | inactive |
| COC(=O)CCCCCCCCCC#CCCCCO | inactive |
| COC(=O)CCCC#CCCO | inactive |

Further lines, results first:

| Activity | Compound |
| --- | --- |
| Active | O=C(O)CCCCCC#CCCCCO |
| Active | O=C(O)CCCCCC#CCCCO |
